Data: US9249102B2 (priority 2012, dated 2016)

How the values were obtained:
Haemonchus contortus = assay: Method A: Haemonchus contortus L1 larvae, microtitre plate screen; conditions: 96 h, read-out: motility inhibition
[1] = tested on: microfilaria of Dirofilaria immitis; assay: Method F: microfilaria of Dirofilaria immitis, survival at 24 hours; conditions: survival of microfilaria at 24 hours

**Q.** With `CN(c1ccc([N+](=O)[O-])c(C(F)(F)F)c1)[C@H]1CC[C@H](OCC(=O)N2CCN(Cc3cc4cc(Cl)ccc4o3)CC2)CC1` [Compound 275, 2-[(4-[methyl[4-nitro-3-(trifluoromethyl)phenyl]amino]cyclohexyl)-oxy]1-[4-(5-chlorobenzofuran-2-ylmethyl)piperazin-1-yl]ethan-1-one] as the molecule, how does the inhibition at 5 µg/mL (Haemonchus contortus) read?
**A.** Its inhibition at 5 µg/mL is ≥ 90%.

**Q.** And the EC50 [1]?
**A.** Its EC50 is < 1 µg/mL.

**Q.** `O=C(CO[C@H]1CC[C@H](Nc2ccc([N+](=O)[O-])c(C(F)(F)F)c2)CC1)N1CCN(C(=O)c2cc3cc(Cl)ccc3o2)CC1` [Compound 181, 1-[4-[(5-chloro-1-benzofuran-2-yl)carbonyl]piperazin-1-yl]-2-[(4-[[4-nitro-3-(trifluoromethyl)phenyl]amino]cyclohexyl)oxy]ethan-1-one] was tested. Which inhibition at 5 µg/mL (Haemonchus contortus) did it give?
**A.** Its inhibition at 5 µg/mL is ≥ 90%.

**Q.** What about the EC50 [1] of the same molecule?
**A.** Its EC50 is < 1 µg/mL.

**Q.** What does the source list for `O=C(CO[C@H]1CC[C@H](Nc2ccc([N+](=O)[O-])c(C(F)(F)F)c2)CC1)N1CCN(c2ccc3ccccc3c2)CC1` [Compound 14, 1-[4-(naphthalen-2-yl)piperazin-1-yl]-2-[(4-[[4-nitro-3-(trifluoromethyl)phenyl]amino]cyclohexyl)oxy]ethan-1-one]?
**A.** inhibition at 5 µg/mL (Haemonchus contortus): ≥ 90%; EC50 [1]: < 1 µg/mL

**Q.** For `CC(O[C@H]1CC[C@H](Nc2ccc([N+](=O)[O-])c(C(F)(F)F)c2)CC1)C(=O)N1CCN(c2ccc3cc(F)ccc3c2)CC1` (some centres unmarked) [Compound 252, 1-(4-(6-fluoronaphthalen-2-yl)piperazin-1-yl)-2-(−4-(4-nitro-3-(trifluoromethyl)phenylamino)cyclohexyloxy)propan-1-one], which inhibition at 5 µg/mL (Haemonchus contortus) is on record?
**A.** Its inhibition at 5 µg/mL is ≥ 90%.

**Q.** What about the EC50 [1] of the same molecule?
**A.** Its EC50 is < 1 µg/mL.

**Q.** How did the inhibition at 5 µg/mL (Haemonchus contortus) turn out when `O=C(CO[C@H]1CC[C@H](Nc2ccc([N+](=O)[O-])c(C(F)(F)F)c2)CC1)N1CC2CCC1CN2CC1Cc2cc(F)ccc2O1` (some centres unmarked) [Compound 309, 1-[5-(5-fluoro-2,3-dihydro-benzofuran-2-ylmethyl)-2,5-diaza-bicyclo[2.2.2]oct-2-yl]-2-[4-(4-nitro-3-trifluoromethyl-phenylamino)-cyclohexyloxy]-ethanone] was run?
**A.** The inhibition at 5 µg/mL was ≥ 90%.

**Q.** What about the EC50 [1] of the same molecule?
**A.** Its EC50 is < 0.1 µg/mL.

**Q.** For `CC(c1cc2cc(C(F)(F)F)ccc2o1)N1CCN(C(=O)CO[C@H]2CC[C@H](N(C)c3ccc([N+](=O)[O-])c(C(F)(F)F)c3)CC2)CC1` (some centres unmarked) [Compound 257, 2-[[4-[methyl[4-nitro-3-(trifluoromethyl)phenyl]amino]cyclohexyl]oxy]-1-(4-[1-[5-(trifluoro-methyl)-1-benzofuran-2-yl]ethyl]piperazin-1-yl)ethan-1-one], which inhibition at 5 µg/mL (Haemonchus contortus) is on record?
**A.** Its inhibition at 5 µg/mL is ≥ 90%.

**Q.** What about the EC50 [1] of the same molecule?
**A.** The EC50 was < 5 µg/mL.

**Q.** `O=C(CO[C@H]1CC[C@H](Nc2ccc([N+](=O)[O-])c(C(F)(F)F)c2)CC1)N1CCN(C(=O)c2cc3cc(F)ccc3o2)CC1` [Compound 182, 1-[4-[(5-fluoro-1-benzofuran-2-yl)carbonyl]piperazin-1-yl]-2-[(4-[[4-nitro-3-(trifluoromethyl)phenyl]amino]cyclohexyl)oxy]ethan-1-one] was tested. Which inhibition at 5 µg/mL (Haemonchus contortus) did it give?
**A.** The inhibition at 5 µg/mL was ≥ 90%.

**Q.** And the EC50 [1]?
**A.** The EC50 was < 5 µg/mL.

**Q.** For `N#Cc1ccc(NC2CCN(C(=O)CCCN3CCN(c4ccc5cc(Cl)ccc5n4)CC3)CC2)cc1C(F)(F)F` [Compound 96, 4-[(1-[4-[4-(6-chloroquinolin-2-yl)piperazin-1-yl]butanoyl]piperidin-4-yl)amino]-2-(trifluoromethyl)benzonitrile], which inhibition at 5 µg/mL (Haemonchus contortus) is on record?
**A.** The inhibition at 5 µg/mL was ≥ 90%.

**Q.** What about the EC50 [1] of the same molecule?
**A.** The EC50 was < 5 µg/mL.

**Q.** For `O=C(CO[C@H]1CC[C@H](Nc2ccc([N+](=O)[O-])c(C(F)(F)F)c2)CC1)N1CCN(C(=O)C2Cc3cc(C(F)(F)F)ccc3O2)CC1` (some centres unmarked) [Compound 81, 2-[4-(4-nitro-3-trifluoromethyl-phenylamino)-cyclohexyloxy]-1-[4-(5-trifluoromethyl-2,3-dihydro-benzofuran-2-carbonyl)-piperazin-1-yl]-ethanone], which inhibition at 5 µg/mL (Haemonchus contortus) is on record?
**A.** The inhibition at 5 µg/mL was ≥ 90%.

**Q.** What about the EC50 [1] of the same molecule?
**A.** Its EC50 is < 1 µg/mL.

**Q.** With `O=[N+]([O-])c1ccc(N[C@H]2CC[C@H](OCC(=S)N3CCN(CC4Cc5cc(F)ccc5O4)CC3)CC2)cc1C(F)(F)F` (some centres unmarked) [Compound 265, 1-[4-(5-fluoro-2,3-dihydro-benzofuran-2-ylmethyl)-piperazin-1-yl]-2-[4-(4-nitro-3-trifluoromethyl-phenylamino)-cyclohexyloxy]-ethanethione] as the molecule, how does the inhibition at 5 µg/mL (Haemonchus contortus) read?
**A.** The inhibition at 5 µg/mL was ≥ 90%.

**Q.** And the EC50 [1]?
**A.** Its EC50 is < 1 µg/mL.
